Reference: paper PMC11459966, “Oral pharmacokinetics and efficacy of oral phospholipid remdesivir nucleoside prodrugs against SARS-CoV-2 in mice” (Antimicrobial Agents and Chemotherapy, 2024)
Read-outs that look alike come from different tables or passages of the source. Marks after values point to notes of the source that are not given here.

Tests used:
[1] = test system: SARS-CoV-2 B.1.351 (Beta variant); format: in vivo, BALB/c mice; settings: for level of infectious SARS-CoV-2 in the lung at 2 dpi compared to vehicle: V2043, V2053, V2067 at 27 or 80 mg/kg; for lung infectious units vs limit of detection at 4 dpi: V2043 and V2067 27 and 80 mg/kg, V2053 80 mg/kg once daily, EIDD-2801 100 mg/kg BID, GS-5245 30 mg/kg BID; for Daily dose required to reach below the limit of detection on day 4 post-infection / Molar daily dose required to reach below the limit of detection on day 4 post-infection / reduction of lung infectious units compared to vehicle: mouse, in vivo; for reduction of lung infectious units compared to vehicle: po, 80 mg/kg; for lung titers reduced to below the limit of detection at 4 dpi: GS-5245 10 mg/kg BID, remdesivir 25 mg/kg BID
[2] = test system: SARS-CoV-2 B.1.351 (Beta variant); format: in vivo, BALB/c mice; settings: for reduction of lung titers: mouse, in vivo, po, 80 mg/kg; for effect on lung titers at day 4 post-infection / lung titers vs limit of detection at day 4 post-infection / weight loss at 2 dpi compared to vehicle-treated mice / lung histopathology scores at 4 dpi / effect on lung titers at day 2 / effect on lung titers at 4 dpi (significant reduction): prophylaxis; for effect on lung titers at day 4 post-infection: 27 mg/kg or 80 mg/kg once daily PO; for antiviral effects on lung titers at 2 dpi: prophylaxis, 8, 27 or 80 mg/kg once daily PO; for lung titers vs limit of detection at day 4 post-infection: once daily PO, for V2067 even at 8 mg/kg; for weight loss at 2 dpi compared to vehicle-treated mice: V2043 80 mg/kg, V2053 27 and 80 mg/kg, V2067 all doses; for weight loss at 2 dpi compared to vehicle-treated mice / effect on lung titers at 4 dpi (significant reduction): obeldesivir 10 or 30 mg/kg BID; for lung histopathology scores at 4 dpi: GS-5245 30 mg/kg BID, V2053 8 mg/kg, H&E; for effect on lung titers at day 2: EIDD-2801 100 mg/kg BID, GS-5245 10 or 30 mg/kg BID; for effect on lung titers at day 2 / effect on lung titers at 4 dpi (significant reduction): PO; for effect on lung titers at 4 dpi (significant reduction): comparators: EIDD-2801 100 mg/kg BID, remdesivir 25 mg/kg BID
[3] = daily dose derived from prophylaxis experiment (Fig. 4)

Structure (SMILES) | level of infectious SARS-CoV-2 in the lung at 2 dpi compared to vehicle [1] | lung infectious units vs limit of detection at 4 dpi [1] | Daily dose required to reach below the limit of detection on day 4 post-infection [1] [mg/kg] | Molar daily dose required to reach below the limit of detection on day 4 post-infection [1] [µmol/kg] | reduction of lung infectious units compared to vehicle [1] [log10] | reduction of lung titers [2] [Log10] | effect on lung titers at day 4 post-infection [2] | antiviral effects on lung titers at 2 dpi [2] | lung titers vs limit of detection at day 4 post-infection [2] | weight loss at 2 dpi compared to vehicle-treated mice [2] | lung histopathology scores at 4 dpi [2] | Fold ∆ vs MPV (molar daily dose) ([1]; therapeutic model) [×] | Fold ∆ vs OBDV (molar daily dose) ([1]; therapeutic model) [×] | Daily dose required to reach below the limit of detection on day 4 post-infection [2, 3] | Fold ∆ vs MPV (molar daily dose) [2, 3] [×] | Fold ∆ vs OBDV (molar daily dose) [2, 3] [×] | Molar daily dose required to reach below the limit of detection on day 4 post-infection [2, 3] [µmol/kg] | effect on lung titers at day 2 [2] | effect on lung titers at 4 dpi (significant reduction) [2] | lung titers reduced to below the limit of detection at 4 dpi [1]
CCCCCCCCCCCCCCCCCCOC[C@H](COP(=O)(O)OC[C@H]1O[C@@](C#N)(c2ccc3c(N)ncnn23)[C@H](O)[C@@H]1O)OCc1ccccc1 [Compound V2043, 1-O-octadecyl-2-O-benzyl-sn-glyceryl-P-RVn] | significantly reduced | below the limit of detection in all animals | 27 | 34.3 | 3.1 | 2.29 | significantly reduced lung titers | dose-dependent antiviral effects | below the limit of detection in all animals | lost less weight | – | – | – | – | – | – | – | – | – | –
CCCCCCCCC=CCCCCCCCCOCC(COP(=O)(O)OCC1OC(C#N)(c2ccc3c(N)ncnn23)C(O)C1O)OCc1ccc(OC)c(F)c1 (stereo not drawn) [Compound V2053] | significantly reduced | below the limit of detection in all animals | – | – | 3.0 | – | significantly reduced lung titers | dose-dependent antiviral effects | – | lost less weight | small but significant reductions | – | – | – | – | – | – | – | – | –
CCCCCCCCCCCCCCCCCCOCC(COP(=O)(O)OC[C@H]1O[C@@](C#N)(c2ccc3c(N)ncnn23)[C@H](O)[C@@H]1O)OCc1ccc(C#N)cc1 (stereo partly drawn) [Compound V2067] | significantly reduced | below the limit of detection in all animals | 27 | 33.2 | 3.2 | 1.83 | significantly reduced lung titers | dose-dependent antiviral effects | below the limit of detection in all animals | lost less weight | – | 18.2 | 5.0 | 8^a mg/kg | 61.9 | 16.9 | 9.8 | – | – | –
CC(C)C(=O)OC[C@H]1O[C@@H](n2ccc(NO)nc2=O)[C@H](O)[C@@H]1O [EIDD-2801, reference compound] | – | reduced lung titers to below the limit of detection | 200 | 607 | – | – | – | – | – | – | – | – | – | – | – | – | – | significantly reduced lung titers | significantly reduced lung titers | –
CC(C)C(=O)OC[C@H]1O[C@@](C#N)(c2ccc3c(N)ncnn23)[C@H](O)[C@@H]1O [Obeldesivir GS-5245, reference compound] | – | reduced lung titers to below the limit of detection | 60 | 166 | – | – | – | – | – | lost less weight | small but significant reductions | – | – | – | – | – | – | significantly reduced lung titers | did not | did not
CCC(CC)COC(=O)[C@H](C)N[P@](=O)(OC[C@H]1O[C@@](C#N)(c2ccc3c(N)ncnn23)[C@H](O)[C@@H]1O)Oc1ccccc1 [remdesivir] | – | – | – | – | – | – | – | – | – | – | – | – | – | – | – | – | – | – | did not | did not
